From US6423704B1, “Substituted 4-(1H-benzimidazol-2-yl)[1,4]diazepanes useful for the treatment of allergic diseases” (Aventis Pharmaceuticals Inc., priority 1995, dated 2002)
Counter-ions that a name gives are not always drawn.

SMILES | melting point [°C]
CCOCCn1c(N2CCCN(CCC3(c4ccccn4)CCN(C(=O)c4cc(OC)c(OC)c(OC)c4)C3)CC2)nc2ccccc21 (centres unmarked) [Example 32, 1-(3,4,5-Trimethoxybenzoyl)-3-(2-(4-(1-(2-ethoxyethyl)-1H-benzimidazol-2-yl)[1,4]diazepan-1-yl)ethyl)-3-(pyrid-2-yl)pyrrolidine] | 40 to 42
CCOCCn1c(N2CCCN(CCC3(c4ccc(OC)c(OC)c4)CCN(C(=O)c4cc(OC)c(OC)c(OC)c4)C3)CC2)nc2ccccc21 (centres unmarked) (as salt: salt) [Example 1, 1-(3,4,5-Trimethoxybenzoyl)-3-(2-(4-(1-(2-ethoxyethyl)-1H-benzimidazol-2-yl)[1,4]diazepan-1-yl)ethyl)-3-(3,4-dimethoxyphenyl)pyrrolidine] | 90 to 100
